Experimental data reported in patent US8288139B2, “Sulfotransferase inhibitors” (Seikagaku Corporation, priority 2002, dated 2012).

Biological target: T1, human-derived GalNAc4S6ST (Homo sapiens, UniProt Q7LFX5)
T1 construct: made in house
T1 sequence (Q7LFX5 1-561): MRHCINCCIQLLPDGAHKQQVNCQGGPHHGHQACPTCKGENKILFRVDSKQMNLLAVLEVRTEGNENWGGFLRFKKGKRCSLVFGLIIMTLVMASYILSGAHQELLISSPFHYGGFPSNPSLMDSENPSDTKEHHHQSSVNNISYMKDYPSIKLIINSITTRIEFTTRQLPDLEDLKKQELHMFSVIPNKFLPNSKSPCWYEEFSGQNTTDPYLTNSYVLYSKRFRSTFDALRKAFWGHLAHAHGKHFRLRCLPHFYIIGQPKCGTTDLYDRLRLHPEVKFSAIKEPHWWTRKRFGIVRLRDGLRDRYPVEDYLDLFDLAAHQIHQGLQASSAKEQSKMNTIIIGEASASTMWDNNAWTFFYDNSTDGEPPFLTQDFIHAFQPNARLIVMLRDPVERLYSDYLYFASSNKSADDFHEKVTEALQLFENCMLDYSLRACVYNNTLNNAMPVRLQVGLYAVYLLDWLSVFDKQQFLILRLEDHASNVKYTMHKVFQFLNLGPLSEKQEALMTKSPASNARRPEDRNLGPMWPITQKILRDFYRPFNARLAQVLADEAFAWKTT
Test: Inhibition of GalNAc4S6ST enzyme activity ([35S]PAPS sulfate transfer to chondroitin sulfate A)
Format: biochemical
Settings: for inhibitory activity upon GalNAc4S6ST (relative value of the enzyme reaction, system without substance = 100%): substance added at 50 nmol, 125 nmol or 250 nmol to 50 μl reaction, 37° C., 20 minutes, values only in FIG. 1-3; for strength of inhibitory activity upon GalNAc4S6ST, α type and β type of the same formula compared: Substance 1 vs 2, 3 vs 4, 5 vs 6, 50, 125 or 250 nmol in 50 μl reaction
Protocol: The enzyme activity was measured by modifying the method described in J. Biol. Chem., 276, 43894-43900 (2001). As the standard reaction solution, 2.5 μmol of imidazole-HCl (pH 6.8), 0.5 μmol of CaCl2, 1 μmol of reduced type glutathione, 25 nmol in galactosamine equivalent of chondroitin sulfate A (derived from whale cartilage, manufactured by Seikagaku Corporation), 50 pmol of [^35S]PAPS (active sulfate: about 5.0×10^5 cpm: prepared according to Anal Biochem., 148, 303-310 (1985)), and human-derived GalNAc4S6ST prepared according to the method described in J. Biol. Chem., 276, 43894-43900 (2001) were added to 50 μl. The reaction was started by adding each of Substance 1 of the present invention, Substance 2 of the present invention, Substance 3 of the present invention, Substance 4 of the present invention, Substance 5 of the present invention and Substance 6 of the present invention to this reaction system to give a final concentration of 50 nmol, 125 nmol or 250 nmol.
The reaction was carried out by incubating the reaction solution at 37° C. for 20 minutes, and the reaction was terminated by heating the reaction tubes in boiling water for 1 minute. After termination of the reaction, 3 volumes of ethanol containing 1.3% potassium acetate was added thereto to thereby precipitate the ^35S-labeled glycosaminoglycan, followed by gel chromatography using a high performance desalting column according to the method described in J. Biol. Chem., 268, 21968-21974 (1993), and then the radioactivity was measured by using a scintillation counter. A reaction system to which the enzyme was not added was used as the negative control.
By using the enzyme activity of a system to which the substance of the present invention was not added as the positive control and regarding it as 100%, relative values of the enzyme reaction in a system to which the substance of the present invention was added were calculated (Substance 1 of the present invention and Substance 2 of the present invention: FIG. 1, Substance 3 of the present invention and Substance 4 of the present invention: FIG. 2, Substance 5 of the present invention and Substance 6 of the present invention: FIG. 3).

inhibitory activity upon GalNAc4S6ST (relative value of the enzyme reaction, system without substance = 100%)	strength of inhibitory activity upon GalNAc4S6ST, α type and β type of the same formula compared	SMILES
inhibitory activity was observed	–	CC(=O)NC1[C@@H](Oc2ccccc2)OC(COS(=O)(=O)O)[C@H](O)[C@@H]1O (stereo partly shown) [Substance 1]
–	stronger inhibitory activity	CC(=O)NC1[C@H](Oc2ccccc2)OC(CO)[C@H](OS(=O)(=O)O)[C@@H]1O (stereo partly shown) [Substance 6]
inhibitory activity was observed	particularly strong	CC(=O)NC1[C@H](Oc2ccccc2)OC(COS(=O)(=O)O)[C@H](O)[C@@H]1O (stereo partly shown) [Substance 2]
